Series [1] concerns MIA PaCa-2. As to the kind of experiment: Effect on CRBN expression in patient derived siCRBN transfected human MIA PaCa-2 cells at 5 uM measured after 24 hrs by immunoblot analysis. The series is classed as functional, cell-based.
The nature of series [2]: Chemical stability of the compound in at pH 7.4 measured at 6 hrs by HPLC based non-enzymatic stability assay. Conditions: buffer, read-out: Stability. The series is classed as physicochemical.
Series [3] can be described thus: Chemical stability of the compound in at pH 7.4 measured at 12 hrs by HPLC based non-enzymatic stability assay. The series is classed as physicochemical. Conditions: buffer, read-out: Stability.
A short description of series [4]: Chemical stability of the compound in at pH 7.4 measured at 24 hrs by HPLC based non-enzymatic stability assay. The series is classed as physicochemical. Conditions: buffer, read-out: Stability.
The nature of series [5]: Chemical stability of the compound in at pH 7.4 measured at 48 hrs by HPLC based non-enzymatic stability assay. The series is classed as physicochemical. Conditions: buffer, read-out: Stability.
A short description of series [6]: Chemical stability of the compound in at pH 7.4 measured at 72 hrs by HPLC based non-enzymatic stability assay. The series is classed as physicochemical. Conditions: buffer, read-out: Stability.
Series [7] in a line: Plasma protein binding in human plasma. The series is classed as ADME, cell-free. Conditions: read-out: PPB (converted).
The nature of series [8]: Plasma stability in human plasma assessed as compound remaining at 20 uM measured after 24 hrs by HPLC analysis. The series is classed as ADME, cell-free. Conditions: read-out: Stability.
A further series deals with ATR/ATRIP (Homo sapiens, UniProt Q13535). As to the kind of experiment: Inhibition of human ATR/ATRIP complex using GST-cMyc-p53 substrate measured after 30 mins by HTRF based non-radioactive in vitro assay. The series is classed as protein-complex assay.
ATR/ATRIP, sequence (Q13535 whole entry): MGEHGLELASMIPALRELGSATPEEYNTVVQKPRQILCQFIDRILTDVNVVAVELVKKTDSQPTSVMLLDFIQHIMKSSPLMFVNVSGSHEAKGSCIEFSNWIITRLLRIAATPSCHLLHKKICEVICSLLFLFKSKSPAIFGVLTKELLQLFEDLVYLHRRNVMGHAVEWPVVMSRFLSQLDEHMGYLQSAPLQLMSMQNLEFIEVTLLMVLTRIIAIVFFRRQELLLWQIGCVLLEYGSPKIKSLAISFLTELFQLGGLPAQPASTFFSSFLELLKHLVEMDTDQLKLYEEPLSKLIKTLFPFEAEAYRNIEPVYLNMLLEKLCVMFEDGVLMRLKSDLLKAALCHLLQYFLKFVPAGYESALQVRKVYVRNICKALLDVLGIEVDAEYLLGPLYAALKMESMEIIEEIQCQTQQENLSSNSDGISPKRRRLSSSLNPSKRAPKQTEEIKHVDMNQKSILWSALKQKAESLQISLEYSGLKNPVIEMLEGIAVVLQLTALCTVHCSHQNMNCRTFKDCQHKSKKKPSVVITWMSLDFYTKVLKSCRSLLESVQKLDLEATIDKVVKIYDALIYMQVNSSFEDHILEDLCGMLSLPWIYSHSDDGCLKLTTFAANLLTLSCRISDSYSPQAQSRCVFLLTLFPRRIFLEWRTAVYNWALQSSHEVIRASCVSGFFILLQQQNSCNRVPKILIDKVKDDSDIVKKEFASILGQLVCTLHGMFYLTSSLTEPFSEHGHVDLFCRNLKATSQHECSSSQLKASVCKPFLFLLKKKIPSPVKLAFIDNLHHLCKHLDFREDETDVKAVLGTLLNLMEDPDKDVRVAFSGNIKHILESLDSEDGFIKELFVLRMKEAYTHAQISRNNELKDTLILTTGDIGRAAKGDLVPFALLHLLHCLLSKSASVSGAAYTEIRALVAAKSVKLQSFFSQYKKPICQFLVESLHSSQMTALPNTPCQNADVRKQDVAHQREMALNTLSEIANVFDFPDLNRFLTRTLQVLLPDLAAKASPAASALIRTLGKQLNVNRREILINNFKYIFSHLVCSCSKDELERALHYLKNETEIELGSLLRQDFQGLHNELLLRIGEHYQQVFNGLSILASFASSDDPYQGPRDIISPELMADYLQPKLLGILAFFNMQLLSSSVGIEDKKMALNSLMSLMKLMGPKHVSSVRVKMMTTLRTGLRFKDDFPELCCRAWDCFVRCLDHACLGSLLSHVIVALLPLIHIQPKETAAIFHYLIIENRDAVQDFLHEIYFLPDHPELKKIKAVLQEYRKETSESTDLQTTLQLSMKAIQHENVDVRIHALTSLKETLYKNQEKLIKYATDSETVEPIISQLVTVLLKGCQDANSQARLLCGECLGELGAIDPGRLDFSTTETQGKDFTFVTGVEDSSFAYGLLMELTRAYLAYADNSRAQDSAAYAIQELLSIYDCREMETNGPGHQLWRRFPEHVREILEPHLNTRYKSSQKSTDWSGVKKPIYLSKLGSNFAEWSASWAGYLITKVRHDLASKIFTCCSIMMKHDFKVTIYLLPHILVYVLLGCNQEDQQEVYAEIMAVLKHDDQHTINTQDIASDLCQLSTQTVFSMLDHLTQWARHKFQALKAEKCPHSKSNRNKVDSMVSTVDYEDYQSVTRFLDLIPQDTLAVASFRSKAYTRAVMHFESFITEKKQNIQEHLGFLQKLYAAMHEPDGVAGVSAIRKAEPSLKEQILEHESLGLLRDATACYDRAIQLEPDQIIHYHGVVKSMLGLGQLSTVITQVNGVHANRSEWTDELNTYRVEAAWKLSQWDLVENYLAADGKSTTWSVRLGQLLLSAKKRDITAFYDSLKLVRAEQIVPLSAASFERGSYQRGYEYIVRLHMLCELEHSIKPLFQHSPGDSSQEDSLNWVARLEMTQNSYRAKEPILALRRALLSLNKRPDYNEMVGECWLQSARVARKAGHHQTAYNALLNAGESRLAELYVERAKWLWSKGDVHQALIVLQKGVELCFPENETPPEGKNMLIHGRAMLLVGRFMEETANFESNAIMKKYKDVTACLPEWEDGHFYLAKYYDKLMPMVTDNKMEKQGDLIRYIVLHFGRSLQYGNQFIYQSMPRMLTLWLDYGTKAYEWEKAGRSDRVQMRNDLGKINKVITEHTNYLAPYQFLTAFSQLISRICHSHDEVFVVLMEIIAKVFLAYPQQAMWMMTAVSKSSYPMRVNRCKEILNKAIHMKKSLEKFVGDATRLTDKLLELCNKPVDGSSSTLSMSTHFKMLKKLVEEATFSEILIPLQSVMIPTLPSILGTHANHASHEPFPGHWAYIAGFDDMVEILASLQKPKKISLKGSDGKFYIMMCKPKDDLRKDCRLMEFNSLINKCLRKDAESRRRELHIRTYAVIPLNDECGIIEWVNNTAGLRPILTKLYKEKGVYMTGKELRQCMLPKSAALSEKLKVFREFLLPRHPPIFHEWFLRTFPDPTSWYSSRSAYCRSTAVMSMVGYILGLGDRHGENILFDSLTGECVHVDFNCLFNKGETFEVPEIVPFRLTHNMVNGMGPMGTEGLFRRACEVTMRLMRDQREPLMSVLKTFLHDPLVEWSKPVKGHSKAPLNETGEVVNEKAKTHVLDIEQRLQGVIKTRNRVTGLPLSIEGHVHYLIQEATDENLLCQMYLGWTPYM
ATR/ATRIP, sequence (Q8WXE1 whole entry, further chain): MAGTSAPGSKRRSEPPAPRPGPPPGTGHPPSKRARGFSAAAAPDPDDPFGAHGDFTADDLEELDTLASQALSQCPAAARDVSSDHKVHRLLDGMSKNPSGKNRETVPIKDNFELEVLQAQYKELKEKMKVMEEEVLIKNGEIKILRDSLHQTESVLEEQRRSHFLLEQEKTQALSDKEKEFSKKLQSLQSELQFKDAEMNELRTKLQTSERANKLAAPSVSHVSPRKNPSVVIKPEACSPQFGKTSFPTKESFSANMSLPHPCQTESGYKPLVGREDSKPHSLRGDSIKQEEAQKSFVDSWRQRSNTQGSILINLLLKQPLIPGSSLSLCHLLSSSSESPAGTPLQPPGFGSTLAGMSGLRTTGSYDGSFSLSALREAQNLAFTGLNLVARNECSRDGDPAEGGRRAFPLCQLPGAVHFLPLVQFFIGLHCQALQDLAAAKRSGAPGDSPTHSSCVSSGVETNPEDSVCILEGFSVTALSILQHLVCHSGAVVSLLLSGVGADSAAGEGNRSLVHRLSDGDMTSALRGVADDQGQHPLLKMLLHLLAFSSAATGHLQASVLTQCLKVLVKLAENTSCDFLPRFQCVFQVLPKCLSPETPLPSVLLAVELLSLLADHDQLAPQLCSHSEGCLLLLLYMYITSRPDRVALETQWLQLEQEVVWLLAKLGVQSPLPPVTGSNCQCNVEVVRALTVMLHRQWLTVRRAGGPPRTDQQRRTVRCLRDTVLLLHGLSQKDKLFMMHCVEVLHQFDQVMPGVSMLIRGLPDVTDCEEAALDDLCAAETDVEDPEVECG
The target of series [9] is T1, Protein cereblon/Serine/threonine-protein kinase ATR (Homo sapiens) (UniProt Q13535+Q96SW2). The experiment in a line: PROTAC activity at ATR/CRBN in patient derived human MIA PaCa-2 cells assessed as reduction in protein level at 500 nM measured after 24 hrs by immunoblot analysis relative to untreated control. The series is classed as cell-based. Also noted: scale not given: the % may be the effect or the level left.
T1 sequence (Q13535 whole entry, looked up): as the sequence (Q13535 whole entry) above
T1 sequence (Q96SW2 whole entry, looked up): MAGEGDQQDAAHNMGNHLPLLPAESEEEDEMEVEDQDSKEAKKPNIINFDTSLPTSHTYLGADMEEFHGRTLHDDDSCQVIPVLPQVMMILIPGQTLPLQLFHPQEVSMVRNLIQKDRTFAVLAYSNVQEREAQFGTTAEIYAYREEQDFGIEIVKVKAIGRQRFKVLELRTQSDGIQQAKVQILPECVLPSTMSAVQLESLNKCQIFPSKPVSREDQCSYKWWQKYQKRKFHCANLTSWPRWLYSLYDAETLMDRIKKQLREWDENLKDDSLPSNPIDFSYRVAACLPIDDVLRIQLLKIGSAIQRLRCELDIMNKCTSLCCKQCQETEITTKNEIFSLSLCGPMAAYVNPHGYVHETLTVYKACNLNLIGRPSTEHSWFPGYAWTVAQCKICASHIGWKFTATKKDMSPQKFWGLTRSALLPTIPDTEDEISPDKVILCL

Series [10] has as its target T1, Protein cereblon/Serine/threonine-protein kinase ATR (Homo sapiens). The experiment in a line: PROTAC activity at ATR/CRBN in patient derived human MIA PaCa-2 cells assessed as reduction in protein level at 2 uM measured after 24 hrs by immunoblot analysis relative to untreated control. The series is classed as cell-based. Also noted: scale not given: the % may be the effect or the level left.

The test system of series [11] is MIA PaCa-2. The experiment in a line: Induction of apoptosis in human MIA PaCa-2 cells assessed as cell death at 2 uM incubated for 24 hrs by Annexin-V/PI based flow cytometry. The series is classed as functional.
Series [12] concerns MIA PaCa-2. As to the kind of experiment: Effect on GSPT1 expression in human MIA PaCa-2 cells at 0.5 to 2 uM incubated for 24 hrs by immunoblot analysis. The series is classed as functional, cell-based. Conditions: dose 0.5-2 µM.
Series [13] concerns the target T1, Protein cereblon/Serine/threonine-protein kinase ATR (Homo sapiens). The experiment in a line: PROTAC activity at ATR/CRBN in human HeLa cells assessed as reduction in protein level at 500 nM measured after 24 hrs by immunoblot analysis relative to untreated control. The series is classed as cell-based. Also noted: scale not given: the % may be the effect or the level left.

For series [14] the target is unchanged. As to the kind of experiment: PROTAC activity at ATR/CRBN in human HeLa cells assessed as reduction in p-ATR level at 500 nM measured after 24 hrs by immunoblot analysis relative to untreated control. The series is classed as cell-based. Also noted: scale not given: the % may be the effect or the level left.
Series [15] deals with HeLa. The experiment in a line: Effect on ATM expression in human HeLa cells at 500 nM incubated for 24 hrs by immunoblot analysis. The series is classed as functional, cell-based.
Series [16] concerns HeLa. As to the kind of experiment: Effect on DNA-PKcs expression in human HeLa cells at 500 nM incubated for 24 hrs by immunoblot analysis. The series is classed as functional, cell-based.
For series [17], the target named is T1, Protein cereblon/Serine/threonine-protein kinase ATR (Homo sapiens). As to the kind of experiment: PROTAC activity at ATR/CRBN in patient derived human MIA PaCa-2 cells assessed as reduction in protein level at 2 uM measured after 3 hrs in presence of 50 nM bortezomib by immunoblot analysis. The series is classed as cell-based.
The target is the same in series [18]. The experiment in a line: PROTAC activity at ATR/CRBN in patient derived human MIA PaCa-2 cells assessed as reduction in protein level at 2 uM measured after 3 hrs in presence of 10 uM MG132 by immunoblot analysis. The series is classed as cell-based.
Series [19] has the same target. The experiment in a line: PROTAC activity at ATR/CRBN in patient derived human MIA PaCa-2 cells assessed as reduction in protein level at 2 uM measured after 24 hrs by immunoblot analysis relative to irinotecan. The series is classed as cell-based. Also noted: scale not given: the % may be the effect or the level left.
For series [20] the target is unchanged. The experiment in a line: PROTAC activity at ATR/CRBN in patient derived human MIA PaCa-2 cells assessed as reduction in irinotecan-induced p-CHK1 (S345) level at 2 uM measured after 24 hrs by immunoblot analysis relative to control. The series is classed as cell-based.
Series [21] concerns MIA PaCa-2. The experiment in a line: Effect on CRBN expression in patient derived siCRBN transfected human MIA PaCa-2 cells at 2 uM measured after 24 hrs by immunoblot analysis. The series is classed as functional, cell-based.
The test system of the next series is HEK293. The experiment in a line: Cytotoxicity against human HEK293 cells assessed as cell viability at 50 uM incubated for 24 hrs by Alamar Blue reagent based assay relative to control. The series is classed as functional. Conditions: read-out: Activity.
Series [22] has as its target T1, Protein cereblon/Serine/threonine-protein kinase ATR (Homo sapiens). As to the kind of experiment: PROTAC activity at ATR/CRBN in patient derived human MIA PaCa-2 cells assessed as reduction in p-ATR (T1989) level at 2 uM measured after 24 hrs by immunoblot analysis relative to control. The series is classed as cell-based.

Experimental findings from ChEMBL document CHEMBL5543092, “Design, synthesis, and biological characterization of proteolysis targeting chimera (PROTACs) for the ataxia telangiectasia and RAD3-related (ATR) kinase” (Eur J Med Chem, 2024) are described below.

The source made the active and inactive calls. The rule behind the calls is not given here.

As for `CCc1c2c(nc3ccc(OC(=O)N4CCC(N5CCCCC5)CC4)cc13)-c1cc3c(c(=O)n1C2)COC(=O)[C@]3(O)CC`, the result in the series on MIA PaCa-2 [1] was inactive.
`Nc1ncc(-c2ccc(S(=O)(=O)NCCCCCC(=O)NCCCC#Cc3cccc4c3CN(C3CCC(=O)NC3=O)C4=O)cc2)nc1C(=O)Nc1ccccc1` (centres undefined): the remaining at 6 h in series [2] was 102%. The remaining at 12 h in series [3] came to 104%. Moreover, the remaining at 24 h in series [4] is 106%. Also, the remaining at 48 h in series [5] amounted to 110%. Also, the remaining at 72 h in series [6] was determined as 115%. In addition, in [7], the fraction unbound was 0.106. Besides, the remaining at 24 h, 20 µM in series [8] worked out at 75%. Also, at ATR/ATRIP, the IC50 is above 10 µM. Further, the Activity in [9] was determined as 40%; in series [10], 40%; in [13], 60%; in [14], 60%; in [19], 80%. Besides, the outcome (with MIA PaCa-2 [11]; in the series with MIA PaCa-2 [12]; with HeLa [15]; in the series with HeLa [16]; in [17]; in series [18]) was inactive. Also, the result with MIA PaCa-2 [21] was inactive. Also, the fold change (FC) in [20] is 0.5; in [22], 0.1. Moreover, the viability at 50 µM in the series on HEK293 was 77.1%.
